Measurements reported in patent publication US11919933B2, “Use of MYOG gene as target in preparation of drug for treating cardiomyocyte apoptosis-associated cardiovascular disease” (GUANGDONG BEATING ORIGIN REGENERATIVE MEDICINE CO., LTD., priority 2020, dated 2024).
Structures can show the parent of a compound that is named as a salt.

How the values were obtained:
Type in all cases: cell-based, human
[1] = test system: MYOG expression in hiPSC-MYOG cells; assay: qPCR detection of MYOG mRNA expression levels after Dox induction; conditions: Dox 2 μg/mL
Procedure: 2.1 Induction: The expression of MYOG was induced by adding Dox (Sigma, D9891) at a final concentration of 2 μg/mL to STEMUP, and DMSO was used as a control. In the control group, only DMSO (denoted as C1) was added to STEMUP. In the experimental group, both DOX and DMSO were added to STEMUP, where DOX was first added to DMSO, and then a resulting mixture (denoted as C2) was added to STEMUP. A final concentration of DOX in STEMUP was 2 μg/mL, and the C1 and C2 were added at a same amount. 2.2 Total RNA extraction: The UN1Q-10 column Trizol total RNA extraction kit (Sangon Biotech, B511321-0100) was used to extract total RNA of the cells (a sample was treated with deoxyribonuclease I (DNase I, Sangon Biotech, B618252) for 30 min in advance). 2.3 Reverse transcription: RNA was reverse-transcribed with the reverse transcription kit iScript Reverse Transcription Supermix (Bio-Rad, 1708841). 2.4 qPCR detection of MYOG mRNA expression levels: According to the instructions of SsoAdvanced™ Universal SYBR® Green Supermix (Bio-Rad, 1725271), the PikoReal Real-Time PCR system (Thermo Fisher) was used to design primers with […] as an internal reference, and then MYOG expression levels in hiPSC and hiPSC-MYOG (Dox-induced group and DMSO control group) were detected. Sequences of the primers were as follows: […]

hiPSC-CMs [2] = assay: PrestoBlue cell viability assay of angiotensin II-treated hiPSC-CMs; conditions: angiotensin II 100 μM and 1 mM, long-term treatment (6 d and 10 d)
Procedure: (§1) 2.1 Induction of hiPSC-CM apoptosis with angiotensin II: Purified hiPSC-CMs were cultivated in a cardiomyocyte medium (MedChemExpress, HY-13948) with angiotensin II at different concentrations (1 nM, 10 nM, 100 nM, 1 μM, 10 μM, 100 μM, and 1 mM), and the angiotensin II-containing medium was changed every 2 days.
2.2.1 A cardiomyocyte viability was detected with the PrestoBlue cell viability assay reagent (Invitrogen, A13261) at 24 h, 48 h, 6 d, and 10 d, and results are shown in FIG. 3.

hiPSC-MYOG-CMs = assay: TUNEL apoptosis test of hiPSC-MYOG-CMs (Ang II / Dox groups); conditions: angiotensin II 1 mM, 6 d
Procedure: 5.1 Induction of hiPSC-MYOG-CM apoptosis with angiotensin II: Purified hiPSC-MYOG-CMs were divided into 4 groups (Ang II(+)&Dox(+), Ang II(+)&Dox(−), Ang II(−)&Dox(+), and Ang II(−)&Dox(−)) and then treated for 6 d with a Dox having a concentration of 2 μg/mL and an angiotensin II having a concentration of 1 mM.
5.3 Apoptosis assay: TUNEL test: The TdT in situ apoptosis detection kit (R&D Systems, 4812-30-K) was used to detect the apoptosis of cardiomyocytes in the 4 groups (Ang II(+)&Dox(+), Ang II(+)&Dox(−), Ang II(−)&Dox(+), and Ang II(−)&Dox(−)). Cardiomyocytes were digested, then added on a glass slide, and stained according to the kit instructions. Nuclei were labeled with DAPI.

hiPSC-CMs [3] = assay: Annexin V apoptosis assay (flow cytometry) of angiotensin II-treated hiPSC-CMs; conditions: angiotensin II 100 μM and 1 mM, 10 d
Procedure: as §1
2.2.2 The apoptosis of cardiomyocytes treated with angiotensin II (100 μM and 1 mM) and untreated with angiotensin II on day 10 was detected with the apoptosis assay kit Annexin V, Alexa Fluor™488 conjugate (Invitrogen, V13201). Cardiomyocytes were labeled with the apoptosis marker Annexin V and then assayed with a FACSAria™ II flow cytometer (BD).

hiPSC-CMs [4] = assay: TUNEL apoptosis test of angiotensin II-treated hiPSC-CMs; conditions: angiotensin II 100 μM and 1 mM, 10 d
Procedure: as §1
2.2.3 TUNEL test: The TdT in situ apoptosis detection kit (R&D Systems, 4812-30-K) was used to detect the apoptosis of cardiomyocytes treated with angiotensin II (1 nM, 1 μM, 100 μM, and 1 mM) and untreated with angiotensin II on day 10. Cardiomyocytes were digested, then added on a glass slide, and stained according to the kit instructions, and nuclei were labeled with DAPI.

Molecule	expression level of MYOG in the Dox-induced group versus the DMSO control group [1]	cell viability (hiPSC-CMs [2])	apoptotic cell proportion relative to the control group (hiPSC-MYOG-CMs) [times]	proportion of apoptotic cells (Annexin V) (hiPSC-CMs [3])	proportion of apoptotic cells (TUNEL) (hiPSC-CMs [4])
C[C@H]1c2cccc(O)c2C(=O)C2=C(O)[C@]3(O)C(=O)C(C(N)=O)=C(O)[C@@H](N(C)C)[C@@H]3[C@@H](O)[C@@H]21 [Dox, doxycycline hydrochloride]	more than 100 times	–	–	–	–
angiotensin II (DRVYIHPF; Angiotensin-2; UniProt P01019 25-32, looked up) [common inducer for establishing cardiomyocyte apoptosis models]	–	decreased significantly	2.01	increased significantly	increased significantly
